Patent US20220226321A1, “INHIBITOR OF MNK FOR THE TREATMENT OF NEUROPATHIC PAIN” (Board of Regents, The University of Texas System, priority 2019, published 2022)

Test system: Nav1.8-positive nociceptors
Assay type: in vivo, mouse
Details: Nav1.8-TRAP after paclitaxel

Compound: CC(=O)O[C@H]1C(=O)[C@@]2(C)[C@H]([C@H](OC(=O)c3ccccc3)[C@]3(O)C[C@H](OC(=O)[C@H](O)[C@@H](NC(=O)c4ccccc4)c4ccccc4)C(C)=C1C3(C)C)[C@]1(OC(C)=O)CO[C@@H]1C[C@@H]2O [paclitaxel]
- Log2FC 0st4: 1.718
- Log2FC 2010107E04Rik: 2.12
- Log2FC 2310039H08Rik: 5.143
- Log2FC 2700094K13R1k: 3.302
- Log2FC 4833439L19R1k: 2.132
- Log2FC Aars2: 2.418
- Log2FC Acadvl: 1.927
- Log2FC Acap3: 3.498
- Log2FC Acp1: 1.942
- Log2FC Adamts8: 3.561
- Log2FC Adcy6: 2.711
- Log2FC Alkbh3: 6.476
- Log2FC Amacr: 2.955
- Log2FC Amd1: 3.371
- Log2FC Amer2: 2.706
- Log2FC Anapc13: 3.575
- Log2FC AngptI2: 2.189
- Log2FC Ankrd13b: 2.385
- Log2FC Anxa5: 1.873
- Log2FC Ap2m1: 1.802
- Log2FC Apip: 3.746
- Log2FC Arl3: 1.891
- Log2FC Arl6: 2.816
- Log2FC Arpc1b: 2.309
- Log2FC Asna1: 2.939
- Log2FC Atg4c: 2.347
- Log2FC Atp5c1: 2.208
- Log2FC Atp5j2: 1.988
- Log2FC Avpi1: 2.241
- Log2FC Bcl3: 1.89
- Log2FC Bloc1s1: 1.944
- Log2FC Btbd2: 1.76
- Log2FC C77080: 2.169
- Log2FC Calca: 1.643
- Log2FC Camk1: 1.856
- Log2FC Caml: 1.865
- Log2FC Card19: 1.753
- Log2FC Casp6: 5.72
- Log2FC Ccm2: 1.643
- Log2FC Cct3: 1.638
- Log2FC Cd1d1: 3.345
- Log2FC Cdc42ep3: 3.249
- Log2FC Cdpf1: 1.815
- Log2FC Cenpf: 2.902
- Log2FC Cfap206: 3.055
- Log2FC Cfd: 2.201
- Log2FC Chchd10: 3.153
- Log2FC Chp1: 1.916
- Log2FC Cisd2: 2.375
- Log2FC Cln5: 3.447
- Log2FC Cnih4: 1.926
- Log2FC Cnrip1: 2.136
- Log2FC Cntfr: 2.495
- Log2FC Coq3: 4.105
- Log2FC Cox6b1: 1.818
- Log2FC Cox7a2: 2.17
- Log2FC Cox7b: 2.566
- Log2FC Cox18: 2.806
- Log2FC Crlf2: 3.214
- Log2FC DIg2: 2.734
- Log2FC Dad1: 2.457
- Log2FC Ddt: 1.823
- Log2FC Ddx59: 3.577
- Log2FC Dhrs1: 1.833
- Log2FC Dnajb1: 1.888
- Log2FC Dnajc5: 1.672
- Log2FC Dnal4: 3.156
- Log2FC Dolk: 3.023
- Log2FC Dpm3: 2.927
- Log2FC Dzank1: 2.226
- Log2FC Edfl: 2.362
- Log2FC Efccl: 3.201
- Log2FC Eif3l: 1.622
- Log2FC Eif4a3: 2.269
- Log2FC Elk4: 1.928
- Log2FC Emd: 2.135
- Log2FC Endov: 2.652
- Log2FC Esd: 1.658
- Log2FC Esyt1: 3.657
- Log2FC Fabp7: 2.365
- Log2FC Fads3: 2.619
- Log2FC Fam89a: 3.216
- Log2FC Fam132a: 3.453
- Log2FC Fam172a: 2.094
- Log2FC Fam189b: 1.8
- Log2FC Fbxo2: 2.965
- Log2FC Fkbp1b: 1.714
- Log2FC Fm43b: 4.132
- Log2FC Fsd1: 3.044
- Log2FC Fxyd2: 1.653
- Log2FC Gdf1: 2.419
- Log2FC Gla: 1.793
- Log2FC Gm20721: 2.093
- Log2FC Gmppa: 2.033
- Log2FC Gpr75: 3.81
- Log2FC Gstm1: 3.155
- Log2FC H2-T23: 3.904
- Log2FC H2afj: 2.76
- Log2FC H2afz: 1.717
- Log2FC Hagh: 3.067
- Log2FC Hhatl: 3.915
- Log2FC Hist3h2ba: 2.223
- Log2FC Hspa8: 1.666
- Log2FC Idh3b: 1.905
- Log2FC Ift122: 2.378
- Log2FC Igtp: 2.41
- Log2FC Kcnip2: 2.308
- Log2FC Kcnip4: 1.68
- Log2FC Krt28: 5.481
- Log2FC L3mbt12: 1.691
- Log2FC Lamtor5: 1.975
- Log2FC Lcmt1: 1.712
- Log2FC Lingo2: 2.247
- Log2FC Litaf: 2.888
- Log2FC Lrrc55: 5.433
- Log2FC Lxn: 2.119
- Log2FC Lyrm2: 2.832
- Log2FC M pl36: 2.805
- Log2FC Mok: 7.257
- Log2FC Mpp4: 3.465
- Log2FC Mpv17: 1.73
- Log2FC Mrpl18: 1.683
- Log2FC Mrpl34: 2.378
- Log2FC Mrpl42: 1.785
- Log2FC Mrps36: 2.585
- Log2FC Mtor: 1.973
